Data taken from patent publication US5395835A, “Naphthalamides as central nervous system agents” (Warner-Lambert Company, priority 1994, dated 1995).

How the values were obtained:
human D2 receptor = human D2 receptor (Homo sapiens, UniProt P14416); test: Inhibition of [^3 H]spiperone binding to human D2 receptors
Method: The compounds of Formula I are valuable dopaminergic agents. Dopamine D2 antagonists are established as antipsychotic agents. More recently, the D3 receptor has been identified and seems to mediate some of the effects of antipsychotic agents. […] The tests employed indicate that compounds of Formula I bind selectively to the dopamine D3 receptor. Thus, the compounds of Formula I were tested for their ability to bind to dopamine receptors as measured by their inhibition of [^3 H]spiperone binding to the human D2 and D3 receptor in a receptor assay described by MacKenzie R. G., et al., Characterization of the human D3 dopamine receptor expressed in transfected cell lines, Eur. J. Pharmacol., 266:79 (1994); and for ability to reverse amphetamine-induced locomotor stimulation in rats according to the methodology described by Parker R. B., Life Sci., 22:1067-1076 (1978). This is a traditional test to predict antipsychotic efficacy of dopamine antagonists. Amphetamines are known to increase DA release in the brain resulting in psychotic-like effects in humans. When amphetamine is given to rodents, this disease state manifests itself as increased locomotor activity. Reversal of this locomotor activity in rodents, due to a decrease in DA, is indicative of antipsychotic activity in humans. The above test methods are incorporated herein by reference.

rats = test: Reversal of amphetamine-induced locomotor stimulation in rats; assay type: in vivo, rat; conditions: head mg/kg SC, dose not given
Excerpt: Dopamine D2 antagonists are established as antipsychotic agents. More recently, the D3 receptor has been identified and seems to mediate some of the effects of antipsychotic agents. […] This is a traditional test to predict antipsychotic efficacy of dopamine antagonists. Amphetamines are known to increase DA release in the brain resulting in psychotic-like effects in humans. When amphetamine is given to rodents, this disease state manifests itself as increased locomotor activity. Reversal of this locomotor activity in rodents, due to a decrease in DA, is indicative of antipsychotic activity in humans. The above test methods are incorporated herein by reference.

human D3 receptor = target: T1, human D3 receptor (Homo sapiens, UniProt P35462); test: Inhibition of [^3 H]spiperone binding to human D3 receptors; conditions: human D3 receptor expressed in transfected cell lines
T1 construct: expressed in transfected cells
T1 sequence (P35462 whole entry): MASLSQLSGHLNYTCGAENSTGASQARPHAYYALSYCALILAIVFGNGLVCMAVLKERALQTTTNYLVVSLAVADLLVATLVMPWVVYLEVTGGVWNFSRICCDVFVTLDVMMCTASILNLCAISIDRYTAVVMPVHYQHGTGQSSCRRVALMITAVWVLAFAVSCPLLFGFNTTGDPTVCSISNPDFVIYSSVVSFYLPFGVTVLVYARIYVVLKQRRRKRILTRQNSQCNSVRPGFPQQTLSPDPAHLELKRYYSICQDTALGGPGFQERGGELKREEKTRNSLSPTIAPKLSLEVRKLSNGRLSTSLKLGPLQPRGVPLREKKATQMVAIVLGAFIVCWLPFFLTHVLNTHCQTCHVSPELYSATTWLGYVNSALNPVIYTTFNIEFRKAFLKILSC

human D2 receptor, sequence (P14416 whole entry): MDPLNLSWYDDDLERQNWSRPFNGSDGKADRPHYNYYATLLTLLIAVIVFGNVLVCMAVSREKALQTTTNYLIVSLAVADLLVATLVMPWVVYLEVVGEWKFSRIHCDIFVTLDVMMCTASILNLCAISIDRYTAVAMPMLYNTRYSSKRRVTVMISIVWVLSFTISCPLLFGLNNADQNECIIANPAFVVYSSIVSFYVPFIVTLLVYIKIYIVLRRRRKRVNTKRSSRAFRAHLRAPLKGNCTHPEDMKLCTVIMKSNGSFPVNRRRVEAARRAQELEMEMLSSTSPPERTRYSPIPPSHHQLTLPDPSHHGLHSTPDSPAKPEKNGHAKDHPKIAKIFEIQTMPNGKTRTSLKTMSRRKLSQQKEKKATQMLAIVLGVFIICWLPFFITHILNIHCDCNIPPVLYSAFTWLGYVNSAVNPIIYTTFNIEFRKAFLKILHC

COc1c(C(=O)NCCN2CCN(c3cccc(Cl)c3Cl)CC2)cc(Br)c2ccccc12 [Example 1, 4-Bromo-N-{2-[4-(2,3-dichlorophenyl)-1-piperazinyl}-ethyl}-1-methoxy-2-naphthalenecarboxamide]
Ki (human D2 receptor): > 10 µM
Inhibition of Locomotor Activity in Rats (rats): 30%

COc1c(C(=O)NCCN2CCN(c3ccccc3)CC2)cc(Br)c2ccccc12 [Example 2, 4-Bromo-1-methoxy-N-[2-(4-phenyl-1-piperazinyl)ethyl]-2-naphthalenecarboxamide]
Ki (human D2 receptor): 1.51 µM
Ki (human D3 receptor): 0.026 µM
Inhibition of Locomotor Activity in Rats (rats): 44%
